{
  "source": "patent US9784730B2",
  "about": "“Nanoparticle for targeting brain tumors and delivery of O6-benzylguanine” (University of Washington through its Center for …, priority 2013, dated 2017)",
  "key": {"[1]": {"details": "clinical trials, BG included in TMZ regimens; cited from earlier work"}, "[2]": {"target": "T1, O6-methylguanine-DNA methyltransferase (MGMT) (Homo sapiens, UniProt P16455)", "T1 construct": "MGMT activity determined in cleared supernatants of whole cell homogenates; endogenous in cells; host or cells: SF767 human GBM cell line (ATCC)", "T1 sequence (P16455 1-207)": "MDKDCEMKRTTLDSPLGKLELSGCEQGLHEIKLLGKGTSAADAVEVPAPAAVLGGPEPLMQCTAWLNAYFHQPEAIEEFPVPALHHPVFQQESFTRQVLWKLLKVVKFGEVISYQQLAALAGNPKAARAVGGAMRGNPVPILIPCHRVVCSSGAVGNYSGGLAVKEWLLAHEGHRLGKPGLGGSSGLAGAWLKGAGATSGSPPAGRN", "test": "MGMT activity assay in treated SF767 cells", "type": "cell-based", "details": "20 μM free BG, 2 hr", "procedure": "In this experiment, MGMT activity was assayed in untreated cells, cells incubated with 20 μM free BG for 2 hr, and cells treated for either 2 hr or 24 hr with NPCP-BG equivalent to 5 μM, 10 μM or 20 μM BG. […] All treatment conditions were normalized as a percent MGMT activity of untreated SF767 cells.\nThe MGMT activities of protein extracts of human GBM SF767 cells were measured in a standard biochemical assay that quantifies the transfer of radioactivity from a DNA substrate containing [methyl^3H]O^6-methylguanine (specific activity, 80 Ci/mmol) to protein, as detailed previously (Silber et al., Cancer Res 1998, 58, 1068-1073). 2×10^6 SF767 cells were plated in 100 mm treated dishes and incubated with 20 μM free BG for and 2 hr or 24 hr with NPCP-BG equivalent to 5 μM, 10 μM or 20 μM BG in fully supplemented media. After incubation, cells were washed with PBS and collected and protein extracts were prepared. The protein extract supernatant was prepared by dissolution of washed SF767 pellets of known cell number with non-ionic detergents in the presence of 600 mM NaCl. Aliquots of crude homogenate were saved for DNA determination by the diphenylamine method that measures deoxyribose following degradation of DNA with heat and acid. Crude homogenate was cleared by centrifugation at 10,000×g for 30 min. […]"}, "[3]": {"details": "rodent models; cited from earlier work"}, "SF767 cells": {"test_system": "SF767 cells", "test": "Clonogenic survival assay with TMZ", "type": "cell-based, human", "protocol": "SF767 cells are noted for their pronounced resistance to TMZ (LD50 about 600 μM) mediated in large part by MGMT. The effect of suppression of MGMT activity by NPCP-BG on TMZ-mediated reduction in clonogenic survival of SF767 is illustrated in FIG. 6. Cells were exposed to NPCP-BG equivalent to 20 μM free drug for 2 hr followed by incubation with TMZ for 24 hr in the presence of inhibitor. Controls were treated either with 20 μM free BG or with an equivalent volume of DMSO.\nDetermination of proliferative survival of SF767 by clonogenic assay was performed as described previously (Blank et al., DNA Repair 2004, 3, 629-638). Briefly, 6-well plates inoculated with 2 mL of supplemented medium containing 1000 to 2000 cells were incubated overnight at 37° C. in 95%/5% air/CO2 to allow reattachment and resumption of proliferation. Cells were then incubated for 2 hrs with inhibitor-conjugated NP equivalent to 20 μM free BG prior to exposure to TMZ. Incubation was continued for 22 hr before changing cells to fresh, drug-free medium to allow formation of colonies ≧50 cells. […] Cytotoxicity was quantitated by linear regression analysis of plots of log surviving fraction v. […] Survival was determined in 4 separate experiments in which every dose was assayed in duplicate (i.e., 8 determinations per TMZ dose) in order to achieve statistical significance."}, "brain tumors": {"test_system": "brain tumors", "details": "cited from earlier work"}},
  "data": [
    {"compound": "Nc1nc(OCc2ccccc2)c2nc[nH]c2n1", "note": "[BG, O^6-benzylguanine]", "values": [
      {"measurement": "Reduction of maximum tolerated dose (MTD) of TMZ", "setting": "[1]", "result": 50, "unit": "%"},
      {"measurement": "Fold reduction of MGMT activity", "setting": "[2]", "result": "about 28 fold"},
      {"measurement": "MGMT activity as percent of untreated activity", "setting": "[2]", "result": "about 3.6%"},
      {"measurement": "Half-life reported in literature", "setting": "[3]", "result": 1.2, "unit": "h"},
      {"measurement": "TMZ LD50 in presence of MGMT inhibitor", "setting": "SF767 cells; inhibitor equivalent to 20 μM BG for 2 hr before TMZ for 24 hr", "result": "about 15 μM"}
    ]},
    {"compound": "Cn1nnc2c(C(N)=O)ncn2c1=O", "note": "[TMZ, temozolomide]", "values": [
      {"measurement": "TMZ LD50 (dose reducing clonogenic survival to 50%)", "setting": "SF767 cells; TMZ alone", "result": "about 600 μM"}
    ]},
    {"compound": "chlorotoxin [CTX]", "values": [
      {"measurement": "Brain tumors targeted of those examined", "setting": "brain tumors", "result": "74 out of 79"}
    ]}
  ]
}
